Assay results from the supplement of paper PMC10307832.

What was measured:
Assay in all cases: relative viability (nuclei count vs DMSO), 5 days (fraction); higher = more cells survive
[1] = compound: N#CC[C@H](C1CCCC1)n1cc(-c2ncnc3[nH]ccc23)cn1 [Ruxolitinib] + Nc1ncn([C@H]2C[C@H](O)[C@@H](CO)O2)c(=O)n1 [Decitabine] (partner 2 µM)
In short: (§1)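 After 5 days of treatment, lung cancer cells in 1536-well plates were fixed and stained in a single step (final 0.05% Triton X-100, 1% formaldehyde, 1 ug/ml Hoechst) and their nuclei counted on 4× images. Treatment had been applied by pin tool the day after seeding as one drug alone or as a fixed anchor-drug dose with five library-drug doses (not always all listed) in √10 steps. Relative viability is the nuclei count of treated wells divided by that of vehicle wells, and values are medians of duplicate plates.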

[2] = compound: CS(=O)(=O)c1ccc(C(=O)Nc2ccc(Cl)c(-c3ccccn3)c2)c(Cl)c1 [Vismodegib] + Nc1nc2[nH]cc(CCc3ccc(C(=O)N[C@@H](CCC(=O)O)C(=O)O)cc3)c2c(=O)[nH]1 [Pemetrexed] (partner 0.2 µM)
In short: as §1

[3] = compound: CS(=O)(=O)c1ccc(-c2cnc(N)c(C(=O)Nc3ccccc3)n2)cc1 [VE-821] + COc1cc2c(Oc3ccc(NC(=O)C4(C(=O)Nc5ccc(F)cc5)CC4)cc3F)ccnc2cc1OCCCN1CCOCC1 [Foretinib] (partner 0.25 µM)
In short: as §1

[4] = compound: N#CC[C@H](C1CCCC1)n1cc(-c2ncnc3[nH]ccc23)cn1 [Ruxolitinib] + Cc1cc(Nc2cc(N3CCN(C)CC3)nc(Sc3ccc(NC(=O)C4CC4)cc3)n2)n[nH]1 [Tozasertib] (partner 0.1 µM)
In short: as §1

Row | Cell Line | relative viability ([1]; first compound 0.08 µM) | relative viability ([1]; first compound 0.253 µM) | relative viability ([1]; first compound 0.8 µM) | relative viability ([1]; first compound 2.53 µM) | relative viability ([1]; first compound 8 µM) | relative viability ([2]; first compound 0.08 µM) | relative viability ([2]; first compound 0.253 µM) | relative viability ([2]; first compound 0.8 µM) | relative viability ([2]; first compound 2.53 µM) | relative viability ([2]; first compound 8 µM) | relative viability ([3]; first compound 0.08 µM) | relative viability ([3]; first compound 0.253 µM) | relative viability ([3]; first compound 0.8 µM) | relative viability ([3]; first compound 2.53 µM) | relative viability ([3]; first compound 8 µM) | relative viability ([4]; first compound 0.08 µM) | relative viability ([4]; first compound 0.253 µM) | relative viability ([4]; first compound 0.8 µM) | relative viability ([4]; first compound 2.53 µM) | relative viability ([4]; first compound 8 µM)
1 | NCI-H1755 | 0.742 | 0.686 | 0.755 | 0.694 | 0.667 | 0.441 | 0.417 | 0.365 | 0.426 | 0.432 | 0.956 | 0.855 | 0.845 | 0.92 | 0.765 | 0.561 | 0.525 | 0.622 | 0.616 | 0.557
2 | NCI-H1666 | 0.601 | 0.666 | 0.753 | 0.678 | 0.721 | 0.852 | 0.912 | 0.836 | 0.843 | 0.925 | 0.97 | 1.02 | 1.04 | 1.03 | 0.783 | 0.596 | 0.579 | 0.587 | 0.585 | 0.521
3 | NCI-H2085 | 0.598 | 0.531 | 0.624 | 0.515 | 0.496 | 0.78 | 0.887 | 0.944 | 0.98 | 0.865 | 1.05 | 0.915 | 0.863 | 1.01 | 0.812 | 0.882 | 0.765 | 0.886 | 0.77 | 0.688
4 | BEN | 0.5 | 0.699 | 0.816 | 0.592 | 0.773 | 0.679 | 0.682 | 0.784 | 0.754 | 0.737 | 0.685 | 0.574 | 0.623 | 0.581 | 0.76 | 0.486 | 0.503 | 0.552 | 0.537 | 0.453
